Experimental data reported in the supplement of paper PMC10307832.

Columns and labels:
Experiment in all cases: relative viability (nuclei count vs DMSO), 5 days (fraction); higher = more cells survive
NCI-H23 = tested on: NCI-H23
How it was run: (§1)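 After 5 days of treatment, lung cancer cells in 1536-well plates were fixed and stained in a single step (final 0.05% Triton X-100, 1% formaldehyde, 1 ug/ml Hoechst) and their nuclei counted on 4× images. Treatment had been applied by pin tool the day after seeding as one drug alone or as a fixed anchor-drug dose with five library-drug doses (not always all listed) in √10 steps. Relative viability is the nuclei count of treated wells divided by that of vehicle wells, and values are medians of duplicate plates.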

NCI-H1944 = tested on: NCI-H1944
How it was run: as §1

EKVX = tested on: EKVX
How it was run: as §1

SK-LU-1 = tested on: SK-LU-1
How it was run: as §1

EMC-BAC-2 = tested on: EMC-BAC-2
How it was run: as §1

LCLC-97TM1 = tested on: LCLC-97TM1
How it was run: as §1

HARA = tested on: HARA
How it was run: as §1

NCI-H2126 = tested on: NCI-H2126
How it was run: as §1

H3255 = tested on: H3255
How it was run: as §1

NCI-H322M = tested on: NCI-H322M
How it was run: as §1

NCI-H1437 = tested on: NCI-H1437
How it was run: as §1

HCC-827 = tested on: HCC-827
How it was run: as §1

NCI-H1792 = tested on: NCI-H1792
How it was run: as §1

NCI-H460 = tested on: NCI-H460
How it was run: as §1

HCC-15 = tested on: HCC-15
How it was run: as §1

NCI-H441 = tested on: NCI-H441
How it was run: as §1

LC-2-ad = tested on: LC-2-ad
How it was run: as §1

ChaGo-K-1 = tested on: ChaGo-K-1
How it was run: as §1

PC-3 [JPC-3] = tested on: PC-3 [JPC-3]
How it was run: as §1

NCI-H1915 = tested on: NCI-H1915
How it was run: as §1

NCI-H661 = tested on: NCI-H661
How it was run: as §1

LU99A = tested on: LU99A
How it was run: as §1

NCI-H1793 = tested on: NCI-H1793
How it was run: as §1

Question: Which relative viability (NCI-H23; first compound 0.08 µM) does the source give for `CCCCCCCCCCCC1=C(O)C(=O)C=C(O)C1=O` [Embelin] + CS(=O)(=O)N1CCN(Cc2cc3nc(-c4cccc5[nH]ncc45)nc(N4CCOCC4)c3s2)CC1 [Pictilisib] (partner 1 µM) here?
Answer: 0.51

Question: What about the relative viability (NCI-H23; first compound 0.8 µM) of the same compound?
Answer: 0.573

Question: And the relative viability (NCI-H23; first compound 2.53 µM)?
Answer: 0.475

Question: And the relative viability (NCI-H23; first compound 8 µM)?
Answer: 0.479

Question: What about the relative viability (NCI-H1944; first compound 0.08 µM) of the same compound?
Answer: 0.367

Question: What about the relative viability (NCI-H1944; first compound 0.8 µM) of the same compound?
Answer: 0.383

Question: And the relative viability (NCI-H1944; first compound 2.53 µM)?
Answer: 0.36

Question: What about the relative viability (NCI-H1944; first compound 8 µM) of the same compound?
Answer: 0.306

Question: What about the relative viability (EKVX; first compound 0.08 µM) of the same compound?
Answer: 0.481

Question: What about the relative viability (EKVX; first compound 0.8 µM) of the same compound?
Answer: 0.437

Question: What about the relative viability (EKVX; first compound 2.53 µM) of the same compound?
Answer: 0.406

Question: And the relative viability (EKVX; first compound 8 µM)?
Answer: 0.501

Question: What about the relative viability (SK-LU-1; first compound 0.08 µM) of the same compound?
Answer: 0.676

Question: What about the relative viability (SK-LU-1; first compound 0.8 µM) of the same compound?
Answer: 0.667

Question: And the relative viability (SK-LU-1; first compound 2.53 µM)?
Answer: 0.678

Question: What about the relative viability (SK-LU-1; first compound 8 µM) of the same compound?
Answer: 0.541

Question: And the relative viability (EMC-BAC-2; first compound 0.08 µM)?
Answer: 0.498

Question: What about the relative viability (EMC-BAC-2; first compound 0.8 µM) of the same compound?
Answer: 0.533

Question: What about the relative viability (EMC-BAC-2; first compound 2.53 µM) of the same compound?
Answer: 0.442

Question: What about the relative viability (EMC-BAC-2; first compound 8 µM) of the same compound?
Answer: 0.476

Question: What about the relative viability (LCLC-97TM1; first compound 0.8 µM) of the same compound?
Answer: 0.21

Question: What about the relative viability (LCLC-97TM1; first compound 2.53 µM) of the same compound?
Answer: 0.184

Question: And the relative viability (LCLC-97TM1; first compound 8 µM)?
Answer: 0.122

Question: What about the relative viability (HARA; first compound 0.08 µM) of the same compound?
Answer: 0.604

Question: What about the relative viability (HARA; first compound 0.8 µM) of the same compound?
Answer: 0.586

Question: And the relative viability (HARA; first compound 2.53 µM)?
Answer: 0.489

Question: And the relative viability (HARA; first compound 8 µM)?
Answer: 0.653

Question: And the relative viability (NCI-H2126; first compound 0.08 µM)?
Answer: 0.482

Question: And the relative viability (NCI-H2126; first compound 0.8 µM)?
Answer: 0.424

Question: What about the relative viability (NCI-H2126; first compound 2.53 µM) of the same compound?
Answer: 0.523

Question: What about the relative viability (NCI-H2126; first compound 8 µM) of the same compound?
Answer: 0.467

Question: What about the relative viability (H3255; first compound 0.08 µM) of the same compound?
Answer: 0.574

Question: What about the relative viability (H3255; first compound 0.8 µM) of the same compound?
Answer: 0.62

Question: And the relative viability (H3255; first compound 2.53 µM)?
Answer: 0.512

Question: And the relative viability (H3255; first compound 8 µM)?
Answer: 0.525

Question: What about the relative viability (NCI-H322M; first compound 0.08 µM) of the same compound?
Answer: 0.518

Question: And the relative viability (NCI-H322M; first compound 0.8 µM)?
Answer: 0.612

Question: And the relative viability (NCI-H322M; first compound 2.53 µM)?
Answer: 0.576

Question: What about the relative viability (NCI-H322M; first compound 8 µM) of the same compound?
Answer: 0.478

Question: And the relative viability (NCI-H1437; first compound 0.08 µM)?
Answer: 0.469

Question: And the relative viability (NCI-H1437; first compound 0.8 µM)?
Answer: 0.48

Question: What about the relative viability (NCI-H1437; first compound 2.53 µM) of the same compound?
Answer: 0.5

Question: What about the relative viability (NCI-H1437; first compound 8 µM) of the same compound?
Answer: 0.364

Question: What about the relative viability (HCC-827; first compound 0.08 µM) of the same compound?
Answer: 1.03

Question: What about the relative viability (HCC-827; first compound 0.8 µM) of the same compound?
Answer: 1.04

Question: And the relative viability (HCC-827; first compound 2.53 µM)?
Answer: 1.16

Question: What about the relative viability (HCC-827; first compound 8 µM) of the same compound?
Answer: 1.19

Question: And the relative viability (NCI-H1792; first compound 0.08 µM)?
Answer: 0.299

Question: What about the relative viability (NCI-H1792; first compound 0.8 µM) of the same compound?
Answer: 0.37

Question: And the relative viability (NCI-H1792; first compound 2.53 µM)?
Answer: 0.281

Question: What about the relative viability (NCI-H1792; first compound 8 µM) of the same compound?
Answer: 0.333

Question: And the relative viability (NCI-H460; first compound 0.08 µM)?
Answer: 0.377

Question: And the relative viability (NCI-H460; first compound 0.8 µM)?
Answer: 0.409

Question: And the relative viability (NCI-H460; first compound 2.53 µM)?
Answer: 0.476

Question: And the relative viability (NCI-H460; first compound 8 µM)?
Answer: 0.48

Question: What about the relative viability (HCC-15; first compound 0.08 µM) of the same compound?
Answer: 0.736

Question: And the relative viability (HCC-15; first compound 0.8 µM)?
Answer: 0.802

Question: What about the relative viability (HCC-15; first compound 2.53 µM) of the same compound?
Answer: 0.85

Question: What about the relative viability (HCC-15; first compound 8 µM) of the same compound?
Answer: 0.743

Question: What about the relative viability (NCI-H441; first compound 0.08 µM) of the same compound?
Answer: 0.437

Question: And the relative viability (NCI-H441; first compound 0.8 µM)?
Answer: 0.549

Question: And the relative viability (NCI-H441; first compound 2.53 µM)?
Answer: 0.476

Question: What about the relative viability (NCI-H441; first compound 8 µM) of the same compound?
Answer: 0.505

Question: And the relative viability (LC-2-ad; first compound 0.08 µM)?
Answer: 0.458

Question: What about the relative viability (LC-2-ad; first compound 0.8 µM) of the same compound?
Answer: 0.566

Question: And the relative viability (LC-2-ad; first compound 2.53 µM)?
Answer: 0.618

Question: And the relative viability (LC-2-ad; first compound 8 µM)?
Answer: 0.392

Question: What about the relative viability (ChaGo-K-1; first compound 0.08 µM) of the same compound?
Answer: 1

Question: And the relative viability (ChaGo-K-1; first compound 0.8 µM)?
Answer: 1.22

Question: What about the relative viability (ChaGo-K-1; first compound 2.53 µM) of the same compound?
Answer: 0.626

Question: And the relative viability (ChaGo-K-1; first compound 8 µM)?
Answer: 0.428

Question: What about the relative viability (PC-3 [JPC-3]; first compound 0.08 µM) of the same compound?
Answer: 0.733

Question: What about the relative viability (PC-3 [JPC-3]; first compound 0.8 µM) of the same compound?
Answer: 0.759

Question: And the relative viability (PC-3 [JPC-3]; first compound 2.53 µM)?
Answer: 0.787

Question: And the relative viability (PC-3 [JPC-3]; first compound 8 µM)?
Answer: 0.669

Question: What about the relative viability (NCI-H1915; first compound 0.08 µM) of the same compound?
Answer: 1.06

Question: What about the relative viability (NCI-H1915; first compound 0.8 µM) of the same compound?
Answer: 1.08

Question: And the relative viability (NCI-H1915; first compound 2.53 µM)?
Answer: 0.952

Question: What about the relative viability (NCI-H1915; first compound 8 µM) of the same compound?
Answer: 0.919

Question: And the relative viability (NCI-H661; first compound 0.08 µM)?
Answer: 0.41

Question: What about the relative viability (NCI-H661; first compound 0.8 µM) of the same compound?
Answer: 0.44

Question: And the relative viability (NCI-H661; first compound 2.53 µM)?
Answer: 0.348

Question: And the relative viability (NCI-H661; first compound 8 µM)?
Answer: 0.481

Question: And the relative viability (LU99A; first compound 0.08 µM)?
Answer: 0.393

Question: What about the relative viability (LU99A; first compound 0.8 µM) of the same compound?
Answer: 0.334

Question: What about the relative viability (LU99A; first compound 2.53 µM) of the same compound?
Answer: 0.357

Question: And the relative viability (LU99A; first compound 8 µM)?
Answer: 0.281

Question: And the relative viability (NCI-H1793; first compound 0.08 µM)?
Answer: 0.344

Question: And the relative viability (NCI-H1793; first compound 0.8 µM)?
Answer: 0.366

Question: And the relative viability (NCI-H1793; first compound 2.53 µM)?
Answer: 0.361

Question: What about the relative viability (NCI-H1793; first compound 8 µM) of the same compound?
Answer: 0.218
